Measured values: patent publication US20230329282A1, “Application of 1-Deoxynojirimycin in Feed for Improving Nutritional Value and Sensory Effect of Rabbit Meat Products” (priority 2023, published 2023)
Marks after values point to notes of the source that are not given here.

Experiments:
[1] = system: New Zealand white rabbits; test: Meat quality of rabbit longissimus dorsi (pH, meat color, drip loss, shear force) after DNJ-supplemented diet; assay type: in vivo; settings: 28 d; for Meat color Brightness L* / Meat color Redness a* / Meat color Yellowness b* / pH45min / pH24 h / pH24 h decreased: longissimus dorsi; for Drip loss: meat hung at 4° C. 24 h
Source text: The single-factor completely randomized test design is adopted. 36 45-day-old healthy New Zealand white rabbits (male) with the average weight of (1.05±0.04) kg are selected and randomly divided into 3 groups, and each group has 12 replicates with 1 rabbit per replicate. A control group is fed with a basal diet, an L-DNJ group is fed with the basal diet+0.14 g/kg DNJ, and an H-DNJ group is fed with the basal diet+0.28 g/kg DNJ. The diet is uniformly mixed to be prepared into cylindrical particles with the diameter of 6 mm and the length of 1 cm. The preliminary trial period is 14 d, and the trial period is 28 d.
Before the test, rabbit houses and cages are cleaned and disinfected, rabbits are immunized according to routine procedures, and the rabbit houses are naturally ventilated and illuminated. Each experimental rabbit is raised in a single cage and fed with a diet and water twice a day at fixed time (8:00 am and 17:00 pm), and is free to eat and drink.
The rabbits are deprived of food (but not water) on the night of the end of the experiment, and after weighing in the next morning, 8 rabbits with similar weight are selected from each group and slaughtered. The longissimus dorsi muscles of the rabbits are collected, the pH values of the front, middle and back parts of the longissimus dorsi muscle are measured with a pH meter (Bante221, Shanghai Bante Instrument Co., Ltd.) having the function of automatic temperature compensation and then measured again after standing at room temperature for 24 h, and the pH decreased values of the muscle within 24 h are calculated. The pH value is the average value of the three readings. The meat color (L*, α*, b*) is measured with a TC-PIIG automatic color difference meter (Beijing Aoyike Photoelectric Instrument Co., Ltd.) on the muscle surface. The detection light source is D65 according to CIE laboratory standards, and the measurement area is 8 mm in diameter. The average value is obtained by making three measurements at each detection point.
About 20 g of meat sample is weighed (demoted as M1), hung with a thin thread, and covered with a plastic bag with the mouth sealed, enough space is left inside to accommodate oozy water drops, and the meat sample is hung in a 4° C. refrigerator for 24 h. After being taken out, the meat sample is weighed (denoted as M2) after the surface moisture is absorbed with absorbent paper. 3 parallel samples are measured for each rabbit, and the results are averaged. Drip loss=(M1−M2)/M1×100%.
Another meat sample is trimmed into a 1 cm×1 cm×2.5 cm meat strip, the shear force is measured in the direction perpendicular to the muscle fibers by a TMS-PRO texture analyzer (FTC Corporation, USA) for three times, and the results are averaged.

[2] = system: New Zealand white rabbits; test: Fatty acid composition of rabbit meat by GC/MS; assay type: in vivo; settings: 28 d
Source text: The single-factor completely randomized test design is adopted. 36 45-day-old healthy New Zealand white rabbits (male) with the average weight of (1.05±0.04) kg are selected and randomly divided into 3 groups, and each group has 12 replicates with 1 rabbit per replicate. A control group is fed with a basal diet, an L-DNJ group is fed with the basal diet+0.14 g/kg DNJ, and an H-DNJ group is fed with the basal diet+0.28 g/kg DNJ. The diet is uniformly mixed to be prepared into cylindrical particles with the diameter of 6 mm and the length of 1 cm. The preliminary trial period is 14 d, and the trial period is 28 d. 10 g of meat sample is crushed, total fat is extracted after freeze-drying and converted to fatty acid methyl ester using a mixture of boron trifluoride, hexane and methanol (35:20:45 v/v), and then the fatty acid composition and content are measured with a gas chromatograph-mass spectrometer GC/MS (Model 7890-5975, Agilent Technologies, Inc.) with a 60 m×0.25 mm×0.25 μm capillary column. Gas chromatographic conditions are set as follows: the injector temperature is 220° C., and the detector temperature is 275° C.; and the initial column chamber temperature is 140° C. for 5 min, then increased to 240° C. at a rate of 4° C./min and maintained at 240° C. for 15 min. Finally, the fatty acid is measured with a […]. The ionization energy is 70 eV, the ion source temperature is 200° C., and the scanning range is 50-500 m/z. The retention time of each peak in the chromatogram is compared with that of a mixed standard of 37 fatty acid methyl esters (B25881, Shanghai Yuanye Bio-technology Co., Ltd.) to determine the properties of each peak. Three measurements are made for each sample, and the results are averaged.

[3] = H-DNJ: basal diet+0.28 g/kg DNJ
[4] = L-DNJ: basal diet+0.14 g/kg DNJ

## OC[C@H]1NC[C@H](O)[C@@H](O)[C@@H]1O [DNJ, 1-deoxynojirimycin]
[1]; [3]
  Shear force: 33.51 N/cm^2
  Meat color Brightness L*: 55.34^b
  Meat color Redness a*: 1.71ª
  Meat color Yellowness b*: 8.35
  pH45min: 6.77
  pH24 h: 5.89
  pH24 h decreased: 0.87
  Drip loss: 3.17%
[1]; [4]
  Shear force: 32.86 N/cm^2
  Meat color Brightness L*: 55.82^ab
  Meat color Redness a*: 1.56ª
  Meat color Yellowness b*: 8.32
  pH45min: 6.62
  pH24 h: 5.87
  pH24 h decreased: 0.76
  Drip loss: 3.56%
[2]; [3]
  MUFA C16:1n7c in rabbit meat: 2.06%
  MUFA C16:1n9c in rabbit meat: 0.42%
  MUFA C17:1n7c in rabbit meat: 0.21%
  MUFA C18:1n9c in rabbit meat: 23.01ª %
  MUFA C18:1n9t in rabbit meat: 2.86ª %
  MUFA C20:1n9t in rabbit meat: 0.24^a %
  Monounsaturated fatty acid (MUFA) total: 27.13%
  PUFA C16:3n4c in rabbit meat: 0.19ª %
  PUFA C18:2n6c (linoleic acid) in rabbit meat: 31.77ª %
  PUFA C20:2n6c in rabbit meat: 0.57^ab %
  PUFA C20:3n6c in rabbit meat: 0.43%
  PUFA C20:4n6c (arachidonic acid) in rabbit meat: 2.67ª %
  PUFA C22:4n6c in rabbit meat: 0.31%
  PUFA C22:5n6c (DPA) in rabbit meat: 0.13%
  Polyunsaturated fatty acid (PUFA) total: 36.07ª %
  SFA 9Methyl C14:0 in rabbit meat: 0.07%
  SFA 12Methyl C13:0 in rabbit meat: 0.14^b %
  SFA 13Methyl C14:0 in rabbit meat: 0.13ª %
  SFA 14Methyl C15:0 in rabbit meat: 0.26%
  SFA 14methyl C16:0 in rabbit meat: 0.10%
  SFA C10:0 in rabbit meat: 0.25%
  SFA C12:0 in rabbit meat: 0.92^b %
  SFA C14:0 in rabbit meat: 2.14%
  SFA C15:0 in rabbit meat: 0.53%
  SFA C16:0 in rabbit meat: 26.52^b %
  SFA C17:0 in rabbit meat: 0.52ª %
  SFA C18:0 in rabbit meat: 5.11^b %
  SFA C20:0 in rabbit meat: 0.11%
  Saturated fatty acid (SFA) total: 36.75^b %
  Unsaturated fatty acid (UFA) total: 63.20ª %
[2]; [4]
  MUFA C16:1n7c in rabbit meat: 1.89%
  MUFA C16:1n9c in rabbit meat: 0.51%
  MUFA C17:1n7c in rabbit meat: 0.22%
  MUFA C18:1n9c in rabbit meat: 20.60^b %
  MUFA C18:1n9t in rabbit meat: 1.08^b %
  MUFA C20:1n9t in rabbit meat: 0.16^b %
  Monounsaturated fatty acid (MUFA) total: 24.45%
  PUFA C16:3n4c in rabbit meat: 0.13^b %
  PUFA C18:2n6c (linoleic acid) in rabbit meat: 28.40^b %
  PUFA C20:2n6c in rabbit meat: 0.44^b %
  PUFA C20:3n6c in rabbit meat: 0.15%
  PUFA C20:4n6c (arachidonic acid) in rabbit meat: 1.61^b %
  PUFA C22:4n6c in rabbit meat: 0.39%
  Polyunsaturated fatty acid (PUFA) total: 31.12^b %
  SFA 9Methyl C14:0 in rabbit meat: 0.06%
  SFA 12Methyl C13:0 in rabbit meat: 0.30^a %
  SFA 13Methyl C14:0 in rabbit meat: 0.12ª %
  SFA 14Methyl C15:0 in rabbit meat: 0.27%
  SFA 14methyl C16:0 in rabbit meat: 0.11%
  SFA C10:0 in rabbit meat: 0.20%
  SFA C12:0 in rabbit meat: 1.71ª %
  SFA C14:0 in rabbit meat: 2.16%
  SFA C15:0 in rabbit meat: 0.52%
  SFA C16:0 in rabbit meat: 30.16ª %
  SFA C17:0 in rabbit meat: 0.46^b %
  SFA C18:0 in rabbit meat: 8.22ª %
  SFA C20:0 in rabbit meat: 0.11%
  Saturated fatty acid (SFA) total: 44.48ª %
  Unsaturated fatty acid (UFA) total: 55.57^b %
